Earlier results in patent publication US8071785B2, “Synthesis and evaluation of 18F-labelled-alkyl-1-[(1R)-1-phenylethyl]-1H-imidazole-5-carboxylate as a tracer for the quantification of β-11-hydroxylase enzyme in the adrenal glands” (priority 2006, dated 2011).

Key:
[1] = test system: lesions of adrenocortical origin; conditions: clinical findings
[2] = test system: steroid 110-hydroxylation
[3] = human adrenocortical tissue slices

For CC(c1ccccc1)n1cncc1C(=O)O[11CH3] (centres unmarked) [[O-methyl-^11C]metomidate], the “uptake in lesions of adrenocortical origin, including adenomas” value [1] is given as “high uptake” and the “uptake in lesions of non-adrenocortical origin” value [1] is given as “very low uptake”.

In the case of CCOC(=O)c1cncn1[C@H](C)c1ccccc1 [etomidate], the “conversion of 11-deoxycorticosterone (DOC) to corticosterone and aldosterone” value [2, 3] is given as “block the conversion” and the “conversion of 11-deoxycortisol to cortisol” value [2, 3] is given as “block the conversion”.

In the case of COC(=O)c1cncn1[C@H](C)c1ccccc1 [metomidate, Methyl 1-[(1R)-1-phenylethyl]-1H-imidazole-5-carboxylate], the “inhibition of steroid 110-hydroxylation” value ([2]; relative to etomidate) is listed as “equally potent inhibitor”.
